Assay results published in patent US6737383B1, “Herbicidal oxadiazolidines” (priority 1999, dated 2004).

Key:
[1] = tested on: bedstraw; test: Test B pre/postemergence bedstraw; format: in vivo, Galium aparine; settings: Preemergence; for Bedstraw plant response rating: scale 0 to 10, 0 is no effect, 10 is complete control
In short: (§1)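 Test chemicals in a non-phytotoxic solvent mixture with surfactant were sprayed preemergence onto planted seeds and postemergence onto plants 2 to 18 cm tall (1- to 4-leaf stage). After twelve to sixteen days in a greenhouse, injury was visually rated against untreated controls from 0 (no effect) to 10 (complete control).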

[2] = tested on: blackgrass; test: Test B pre/postemergence blackgrass; format: in vivo, Alopecurus myosuroides
In short: as §1

[3] = tested on: surinam grass; test: Test B pre/postemergence surinam grass; format: in vivo, Brachiaria decumbens
In short: as §1

[4] = tested on: cocklebur; test: Test B pre/postemergence cocklebur; format: in vivo, Xanthium strumarium
In short: as §1

[5] = tested on: corn; test: Test B pre/postemergence corn; format: in vivo, Zea mays
In short: as §1

[6] = tested on: crabgrass; test: Test B pre/postemergence crabgrass; format: in vivo, Digitaria sanguinalis
In short: as §1

[7] = tested on: giant foxtail; test: Test B pre/postemergence giant foxtail; format: in vivo, Setaria faberii
In short: as §1

[8] = tested on: morningglory; test: Test B pre/postemergence morningglory; format: in vivo, Ipomoea hederacea
In short: as §1

[9] = tested on: pigweed; test: Test B pre/postemergence pigweed; format: in vivo, Amaranthus retroflexus
In short: as §1

[10] = tested on: rape; test: Test B pre/postemergence rape; format: in vivo, Brassica napus
In short: as §1

[11] = tested on: soybean; test: Test B pre/postemergence soybean; format: in vivo, Glycine max
In short: as §1

[12] = tested on: sugar beet; test: Test B pre/postemergence sugar beet; format: in vivo, Beta vulgaris
In short: as §1

[13] = tested on: velvetleaf; test: Test B pre/postemergence velvetleaf; format: in vivo, Abutilon theophrasti
In short: as §1

[14] = tested on: wheat; test: Test B pre/postemergence wheat; format: in vivo, Triticum aestivum
In short: as §1

[15] = tested on: wild oat; test: Test B pre/postemergence wild oat; format: in vivo, Avena fatua
In short: as §1

[16] = tested on: purple nutsedge; test: Test B pre/postemergence purple nutsedge; format: in vivo, Cyperus rotundus
In short: as §1

[17] = tested on: rice; test: Test B flood test rice; format: in vivo, Oryza sativa
In short: (§2)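 Each value is a visual injury score relative to controls, with 10 meaning complete control and 0 no effect. Evaluation took place twelve to sixteen days after the 2-leaf-stage plants were treated and kept in the greenhouse.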

[18] = tested on: smallflower flatsedge; test: Test B flood test smallflower flatsedge; format: in vivo, Cyperus difformis
In short: as §2

[19] = tested on: duck salad; test: Test B flood test duck salad; format: in vivo, Heteranthera limosa
In short: as §2

[20] = tested on: bamyardgrass; test: Test B flood test barnyardgrass; format: in vivo, Echinochloa crus-galli
In short: as §2

[21] = Postemergence, Rate 62 g/ha, scale of 0 to 10, 0 is no effect, 10 is complete control
[22] = Postemergence, Rate 125 g/ha, scale 0 to 10, 0 is no effect, 10 is complete control
[23] = Postemergence, Rate 250 g/ha, scale 0 to 10
[24] = Postemergence, Rate 500 g/ha, scale 0 to 10, 0 is no effect, 10 is complete control
[25] = Preemergence, Rate 62 g/ha, scale of 0 to 10 where 0 is no effect and 10 is complete control
[26] = Preemergence, Rate 125 g/ha, scale 0 to 10, 0 is no effect, 10 is complete control
[27] = Preemergence, Rate 250 g/ha, scale 0 to 10, 0 is no effect, 10 is complete control
[28] = Preemergence, Rate 500 g/ha, scale of 0 to 10 where 0 is no effect and 10 is complete control
[29] = Rate 62 g/ha, flood test species, Pre-emergence, visual evaluation after twelve to sixteen days
[30] = Rate 125 g/ha, under heading Pre-emergence, flood test species, visual evaluation after twelve to sixteen days
[31] = Rate 250 g/ha, Pre-emergence (flood test species), scale 0 to 10, 0 is no effect, 10 is complete control
[32] = Rate 500 g/ha, Pre-emergence section of Table B, 0 to 10 scale (0 no effect, 10 complete control)

CCc1nc(C)c(Cn2c(=O)on(C(=O)N(c3ccc(Cl)cc3)C(C)C)c2=O)s1 [Compound 499]
Plant response rating, Bedstraw ([1]; Rate 62 g/ha, scale of 0 to 10 where 0 is no effect and 10 is complete control): 0 | Bedstraw plant response rating ([1]; Rate 125 g/ha): 0 | Bedstraw plant response rating ([1]; Rate 250 g/ha): 0 | Blackgrass plant response rating [2, 21]: 0 | Blackgrass plant response rating [2, 22]: 0 | Blackgrass plant response rating [2, 23]: 2 | Plant response rating, Blackgrass [2, 24]: 4 | Plant response rating, Blackgrass [2, 25]: 0 | Blackgrass plant response rating [2, 26]: 0 | Blackgrass plant response rating [2, 27]: 0 | Blackgrass plant response rating [2, 28]: 1 | B. signalgrass plant response rating [3, 21]: 0 | B. signalgrass plant response rating [3, 22]: 0 | B. signalgrass plant response rating ([3]; Postemergence, Rate 250 g/ha, scale 0 to 10, 0 no effect, 10 complete control): 0 | Plant response rating, B. signalgrass [3, 24]: 0 | Plant response rating, B. signalgrass [3, 25]: 0 | B. signalgrass plant response rating [3, 26]: 0 | B. signalgrass plant response rating [3, 27]: 0 | B. signalgrass plant response rating ([3]; Preemergence, Rate 500 g/ha, scale 0 to 10, 0 is no effect, 10 is complete control): 2 | Cocklebur plant response rating [4, 21]: 0 | Cocklebur plant response rating [4, 22]: 0 | Cocklebur plant response rating [4, 23]: 2 | Plant response rating, Cocklebur [4, 24]: 4 | Cocklebur plant response rating [4, 26]: 0 | Cocklebur plant response rating [4, 27]: 0 | Cocklebur plant response rating [4, 28]: 4 | Corn plant response rating [5, 21]: 0 | Corn plant response rating [5, 22]: 0 | Corn plant response rating [5, 23]: 0 | Plant response rating, Corn [5, 24]: 0 | Plant response rating, Corn [5, 25]: 0 | Corn plant response rating [5, 26]: 0 | Corn plant response rating [5, 28]: 0 | Crabgrass plant response rating [6, 21]: 0 | Crabgrass plant response rating [6, 22]: 0 | Crabgrass plant response rating [6, 23]: 0 | Plant response rating, Crabgrass [6, 24]: 0 | Plant response rating, Crabgrass [6, 25]: 4 | Crabgrass plant response rating [6, 26]: 6 | Crabgrass plant response rating [6, 28]: 8 | Giant foxtail plant response rating [7, 21]: 0 | Giant foxtail plant response rating [7, 22]: 0 | Plant response rating, Giant foxtail [7, 24]: 2 | Plant response rating, Giant foxtail [7, 25]: 3 | Giant foxtail plant response rating [7, 26]: 5 | Giant foxtail plant response rating [7, 28]: 10 | Morningglory plant response rating [8, 21]: 3 | Morningglory plant response rating [8, 22]: 3 | Plant response rating, Morningglory [8, 24]: 6 | Plant response rating, Morningglory [8, 25]: 0 | Morningglory plant response rating [8, 26]: 0 | Morningglory plant response rating [8, 28]: 0 | Redroot pigweed plant response rating [9, 21]: 0 | Redroot pigweed plant response rating [9, 22]: 0 | Plant response rating, Redroot pigweed [9, 24]: 0 | Plant response rating, Redroot pigweed [9, 25]: 0 | Redroot pigweed plant response rating [9, 26]: 0 | Redroot pigweed plant response rating [9, 28]: 0 | Rape plant response rating [10, 21]: 0 | Rape plant response rating [10, 22]: 0 | Plant response rating, Rape [10, 24]: 0 | Plant response rating, Rape [10, 25]: 0 | Rape plant response rating [10, 26]: 0 | Rape plant response rating [10, 28]: 0 | Soybean plant response rating [11, 21]: 0 | Soybean plant response rating [11, 22]: 1 | Plant response rating, Soybean [11, 24]: 3 | Plant response rating, Soybean [11, 25]: 0 | Soybean plant response rating [11, 26]: 0 | Soybean plant response rating [11, 28]: 0 | Sugarbeets plant response rating [12, 21]: 0 | Sugarbeets plant response rating [12, 22]: 0 | Plant response rating, Sugarbeets [12, 24]: 0 | Plant response rating, Sugarbeets [12, 25]: 0 | Sugarbeets plant response rating [12, 26]: 0 | Sugarbeets plant response rating [12, 28]: 0 | Velvetleaf plant response rating [13, 21]: 0 | Velvetleaf plant response rating [13, 22]: 0 | Plant response rating, Velvetleaf [13, 24]: 0 | Plant response rating, Velvetleaf [13, 25]: 0 | Velvetleaf plant response rating [13, 26]: 0 | Velvetleaf plant response rating [13, 28]: 0 | Wheat plant response rating [14, 21]: 0 | Wheat plant response rating [14, 22]: 0 | Plant response rating, Wheat [14, 24]: 0 | Plant response rating, Wheat [14, 25]: 0 | Wheat plant response rating [14, 26]: 0 | Wheat plant response rating [14, 28]: 0 | Wild oats plant response rating [15, 21]: 0 | Wild oats plant response rating [15, 22]: 0 | Plant response rating, Wild oats [15, 24]: 0 | Plant response rating, Wild oats [15, 25]: 0 | Wild oats plant response rating [15, 26]: 0 | Wild oats plant response rating [15, 28]: 0 | Nutsedge plant response rating [16, 21]: 0 | Nutsedge plant response rating [16, 22]: 0 | Plant response rating, Nutsedge [16, 24]: 0 | Nutsedge plant response rating [16, 26]: 0 | Nutsedge plant response rating [16, 28]: 0 | Plant response rating, Rice (0 to 10 scale, 0 is no effect, 10 is complete control) [17, 29]: 0 | Rice plant response rating (0 to 10 scale, 0 is no effect, 10 is complete control) [17, 30]: 0 | Rice plant response rating [17, 31]: 0 | Rice plant response rating [17, 32]: 0 | Plant response rating, S. Flatsedge (0 to 10 scale, 0 is no effect, 10 is complete control) [18, 29]: 0 | S. Flatsedge plant response rating (0 to 10 scale, 0 is no effect, 10 is complete control) [18, 30]: 0 | S. Flatsedge plant response rating [18, 31]: 0 | S. Flatsedge plant response rating [18, 32]: 0 | Plant response rating, Ducksalad (0 to 10 scale, 0 is no effect, 10 is complete control) [19, 29]: 0 | Ducksalad plant response rating (0 to 10 scale, 0 is no effect, 10 is complete control) [19, 30]: 0 | Ducksalad plant response rating [19, 31]: 0 | Ducksalad plant response rating [19, 32]: 0 | Plant response rating, Barnyardgrass (0 to 10 scale, 0 is no effect, 10 is complete control) [20, 29]: 0 | Barnyardgrass plant response rating (0 to 10 scale, 0 is no effect, 10 is complete control) [20, 30]: 0 | Barnyardgrass plant response rating [20, 31]: 0 | Barnyardgrass plant response rating [20, 32]: 0
